# Measurements: PMC10180054, “Design, Synthesis and Biological Evaluation of Novel Pleuromutilin Derivatives Containing 6-Chloro-1-R-1H-pyrazolo[3,4-d]pyrimidine-4-amino Side Chain” (Molecules, 2023)
# Legend:
# MRSA ATCC 43300 [1] = test: MIC/MBC by broth dilution (CLSI); format: cell-based, Staphylococcus aureus; conditions: for MBC / MIC: Staphylococcus aureus; for MBC: MRSA ATCC 43300, 99.9% of the bacteria killed; for MIC: MRSA ATCC 43300, broth dilution, 24 h, 37 °C, read-out: MIC
# Method: (§1) The in vitro antimicrobial activity of the pleuromutilin derivatives was assessed against MRSA ATCC 43300, S. aureus ATCC 29213, S. aureus 144 and S. aureus AD3 according to the Clinical and Laboratory Standards Institute (CLSI). Tiamulin was used as a positive control drug. The results were summarized as the minimum inhibitory concentration (MIC) and the minimum bactericidal concentration (MBC) in Table 1 and Table 2. In addition, MIC results for the pleuromutilin derivatives against four Gram-negative bacteria are supplied in Tables S2 and S3.
# (§2) The MIC and MBC values of the synthesized novel pleuromutilin derivatives against MRSA ATCC 43300, S. aureus ATCC 29213, S. aureus 144 and S. aureus AD3 were measured. Tiamulin was used as a positive control drug. The MIC and MBC values were manipulated by broth dilution according to the Clinical and Laboratory Standards (CLSI). Each compound to be measured was dissolved in a solution of 95% deionized water, 2.5% dimethyl sulfoxide (DMSO) and 2.5% Tween-80 with a concentration of 1280 µg/mL. Subsequently, serial twofold dilutions were made in a concentration range from 64 µg/mL to 0.0625 µg/mL. The working bacterial suspension was inoculated into each well, which provided the final inoculum density of 5 × 10^5 CFU/mL. Three parallel experiments were performed for each compound.
# (§3) Overall, 25 µL of the bacterial solution from the wells with no obvious bacterial growth was inoculated on MH agar plates. Then, the inoculated MH agar plates were further cultured at 37 °C for 24 h.
# S. aureus 144 = test: MIC/MBC by broth dilution (CLSI); format: cell-based; conditions: Staphylococcus aureus; S. aureus 144 (clinical strain)
# Method: as §1, §2, §3
# S. aureus AD3 = test: MIC/MBC by broth dilution (CLSI); format: cell-based; conditions: Staphylococcus aureus; S. aureus AD3 (clinical strain)
# Method: as §1, §2, §3
# S. aureus ATCC 29213 = test: MIC/MBC by broth dilution (CLSI); format: cell-based; conditions: Staphylococcus aureus, ATCC29213; for MBC: S. aureus ATCC 29213; for MIC: S. aureus ATCC 29213, broth dilution, 24 h, 37 °C
# Method: as §1, §2, §3
# MRSA ATCC 43300 [2] = test: Constant concentration time–kill curves; format: cell-based, Staphylococcus aureus; conditions: for type of bactericidal kinetics: time–kill curves, 1 to 32 × MIC
# Method: Time–kill kinetic assays were performed, which were used to investigate the in vitro bactericidal kinetic effect of compounds 12c, 19c, 22c and tiamulin.
# Time–kill curve assays were established with the MIC value to investigate the antibacterial effect of constant drug concentration on MRSA. […] MRSA ATCC 43300 was incubated in MH broth at 37 °C for 4.5 h and diluted to 1 × 10^6 CFU/mL in MH broth. The saline control group was subjected to the same schedule but 0.9% saline water was added instead of the test compound. All the samples were incubated in an oscillating thermostatic at 37 °C, and then 100 μL of the mixture was extracted to 900 μL of sterile saline (0.9%) at 0, 3, 6, 9, 12 and 24 h, respectively. Samples were serially diluted 10-fold in sterile saline (0.9%) and inoculated onto agar plates. The colonies were counted after incubation at 37 °C for 24 h. Three independent experiments were performed according to our previous work. Time–kill curves were constructed by plotting the log10 CFU per millilitre versus time, and the change in bacterial concentration was determined.
# MRSA ATCC 43300 [3] = test: Post-antibiotic effect (PAE); format: cell-based, Staphylococcus aureus
# Method: PAE has been considered as pharmacodynamic assistance which provides a reference for the rational formulation of dosing regimen. PAE refers to the temporary suppression of bacterial growth following transient antibiotic treatment. PAE assays were conducted for compounds 12c and 22c.
# PAE is calculated from growth curves on the difference in time required for the number (1 log10 CFU/mL) of drug-exposed and unexposed microbes. […] The PAE values of compounds 12c and 22c increased with increasing incubation time.
# PAE of compounds 12c and 22c on MRSA ATCC 43300 was determined using MH broth according to our previous work. The final concentration of MRSA was 1 × 10^6 CFU/mL by dilution with MH broth. Compounds 12c, 22c and tiamulin were supplemented in the suspension at a final concentration of 2 × MIC and 4 × MIC, respectively. The negative control group contained untreated MRSA bacterial cells. The test tubes were incubated with a 37 °C constant temperature vibration incubator for 1 and 2 h. After incubation, the test compound was removed from the sample by diluting 1000-fold with the preheated MH broth. Next, 100 μL of suspension from each culture was 10-fold diluted in sterile saline and inoculated on MH agar plates at 0, 2, 4, 6 and 8 h after inoculation. The number of colonies was calculated after incubation at 37 °C for 24 h. The experiments were performed in triplicate.
# MRSA ATCC 43300 [4] = test: Neutropenic murine thigh infection model; format: in vivo; conditions: neutropenic mice, 20 mg/kg, 24 h after dosing, n = 6/group
# Method: Therefore, the in vivo efficacy of compounds 12c and 22c were assessed using the murine neutropenic thigh infection model. Mice groups treated with saline and tiamulin were chosen as the negative and positive controls.
# Model experiments of neutropenic mouse thigh infection were manipulated as described in the literature. Female, six-week-old, specific-pathogen-free mice weighing approximately 23~26 g were used throughout the study. Mice were rendered neutropenic by injection of cyclophosphamide (Mead Johnson Pharmaceuticals, Evansville, IN) on day 4 (150 mg/kg) and day 1 (100 mg/kg) before the experiment. The neutrophil numbers in mice blood should be <0.1 × 10^9/L [34]. In total, 0.1 mL of MH broth of MRSA (10^7 CFU/mL) was inoculated into each thigh of the neutropenic mice. Mice were divided into 4 groups (6 mice per group), including control (sterile saline), compounds 12c, 22c and tiamulin groups. After 3 h post-infection, the corresponding drugs were injected into each mouse’s thigh. Mice were euthanized following intravenous injection for 24 h. Thigh tissue of each mouse was removed, collected, weighed and homogenized in 3 mL of ice sterile saline. Six ten-fold serial dilutions were performed and 25 μL of the bacterial solution from each tube was plated on MH agar plates. The resulting colonies were counted after 24 h incubation at 37 °C. The protocol for this study was reviewed and approved by the Institutional Animal Care and Use Committee of the South China Agricultural University.
smiles,measurement,setting,value
"C=C[C@]1(C)C[C@@H](OC(=O)CSc2ccc(Nc3nc(Cl)nc4c3cnn4-c3ccc(F)cc3)cc2)[C@]2(C)[C@H](C)CC[C@]3(CCC(=O)[C@H]32)[C@@H](C)[C@@H]1O [Compound 19c, 22-[4-(6-Chloro-1-(4-fluorophenyl)-1H-pyrazolo[3,4-d]pyrimidine-4-yl)amino-Phenylsulfanyl]-22-deoxypleuromutilin]",MBC,MRSA ATCC 43300 [1],0.5 µg/mL
same,MIC,MRSA ATCC 43300 [1],0.25 µg/mL
same,MBC/MIC ratio,MRSA ATCC 43300 [1]; against MRSA,≤ 2
same,MBC,S. aureus 144,2 µg/mL
same,MIC,S. aureus 144,1 µg/mL
same,MBC,S. aureus AD3,1 µg/mL
same,MIC,S. aureus AD3,0.25 µg/mL
same,MBC,S. aureus ATCC 29213,0.5 µg/mL
same,MIC,S. aureus ATCC 29213,0.25 µg/mL
same,MRSA killed in time–kill assay,"MRSA ATCC 43300 [2]; 2 × MIC, 24 h incubation",99.9%
same,reduction of MRSA in time–kill assay,"MRSA ATCC 43300 [2]; 2 × MIC, 24 h incubation",−3.57 log10 CFU/mL
same,reduction of MRSA in time–kill assay,MRSA ATCC 43300 [2]; 4 × MIC,−5.16 log10 CFU/mL
same,type of bactericidal kinetics,MRSA ATCC 43300 [2],time-dependent
same,melting point,,141 to 144 °C
"C=C[C@]1(C)C[C@@H](OC(=O)CNc2nc(Cl)nc3c2cnn3-c2cc(Cl)cc(Cl)c2)[C@]2(C)[C@H](C)CC[C@]3(CCC(=O)[C@H]32)[C@@H](C)[C@@H]1O [Compound 26b, 22-[(6-Chloro-1-(3,5-dichlorophenyl)-1H-pyrazolo[3,4-d]pyrimidine-4-yl)amino]-22-deoxypleuromutilin]",MIC,MRSA ATCC 43300 [1],> 64 µg/mL
same,MIC,S. aureus 144,> 64 µg/mL
same,MIC,S. aureus AD3,> 64 µg/mL
same,MIC,S. aureus ATCC 29213,> 64 µg/mL
same,melting point,,151 to 156 °C
"C=C[C@]1(C)C[C@@H](OC(=O)CSc2ccc(Nc3nc(Cl)nc4c3cnn4-c3cc(Cl)cc(Cl)c3)cc2)[C@]2(C)[C@H](C)CC[C@]3(CCC(=O)[C@H]32)[C@@H](C)[C@@H]1O [Compound 26c, 22-[4-(6-Chloro-1-(3,5-dichlorophenyl)-1H-pyrazolo[3,4-d]pyrimidine-4-yl)amino-Phenylsulfanyl]-22-deoxypleuromutilin]",MIC,MRSA ATCC 43300 [1],> 64 µg/mL
same,MIC,S. aureus 144,> 64 µg/mL
same,MIC,S. aureus AD3,> 64 µg/mL
same,MIC,S. aureus ATCC 29213,> 64 µg/mL
same,melting point,,137 to 139 °C
"C=C[C@]1(C)C[C@@H](OC(=O)CNc2nc(Cl)nc3c2cnn3-c2cccc([N+](=O)[O-])c2)[C@]2(C)[C@H](C)CC[C@]3(CCC(=O)[C@H]32)[C@@H](C)[C@@H]1O [Compound 27b, 22-[(6-Chloro-1-(3-nitrophenyl)-1H-pyrazolo[3,4-d]pyrimidine-4-yl)amino]-22-deoxypleuromutilin]",MIC,MRSA ATCC 43300 [1],> 64 µg/mL
same,MIC,S. aureus 144,> 64 µg/mL
same,MIC,S. aureus AD3,> 64 µg/mL
same,MIC,S. aureus ATCC 29213,> 64 µg/mL
same,melting point,,131 to 135 °C
"C=C[C@]1(C)C[C@@H](OC(=O)CSc2ccc(Nc3nc(Cl)nc4c3cnn4-c3cccc([N+](=O)[O-])c3)cc2)[C@]2(C)[C@H](C)CC[C@]3(CCC(=O)[C@H]32)[C@@H](C)[C@@H]1O [Compound 27c, 22-[4-(6-Chloro-1-(3-nitrophenyl)-1H-pyrazolo[3,4-d]pyrimidine-4-yl)amino-Phenylsulfanyl]-22-deoxypleuromutilin]",MIC,MRSA ATCC 43300 [1],> 64 µg/mL
same,MIC,S. aureus 144,> 64 µg/mL
same,MIC,S. aureus AD3,> 64 µg/mL
same,MIC,S. aureus ATCC 29213,> 64 µg/mL
same,melting point,,137 to 139 °C
"C=C[C@]1(C)C[C@@H](OC(=O)CNc2nc(Cl)nc3c2cnn3-c2ccc3ccccc3c2)[C@]2(C)[C@H](C)CC[C@]3(CCC(=O)[C@H]32)[C@@H](C)[C@@H]1O [Compound 28b, 22-[(6-Chloro-1-(naphthalen-2-yl)-1H-pyrazolo[3,4-d]pyrimidine-4-yl)amino]-22-deoxypleuromutilin]",MBC,MRSA ATCC 43300 [1],> 64 µg/mL
same,MIC,MRSA ATCC 43300 [1],32 µg/mL
same,MBC,S. aureus 144,> 64 µg/mL
same,MIC,S. aureus 144,32 µg/mL
same,MBC,S. aureus AD3,> 64 µg/mL
same,MIC,S. aureus AD3,32 µg/mL
same,MBC,S. aureus ATCC 29213,> 64 µg/mL
same,MIC,S. aureus ATCC 29213,32 µg/mL
same,melting point,,123 to 125 °C
"C=C[C@]1(C)C[C@@H](OC(=O)CSc2ccc(Nc3nc(Cl)nc4c3cnn4-c3ccc4ccccc4c3)cc2)[C@]2(C)[C@H](C)CC[C@]3(CCC(=O)[C@H]32)[C@@H](C)[C@@H]1O [Compound 28c, 22-[4-(6-Chloro-1-(naphthalen-2-yl)-1H-pyrazolo[3,4-d]pyrimidine-4-yl-yl)amino-Phenylsulfanyl]-22-deoxypleuromutilin]",MIC,MRSA ATCC 43300 [1],> 64 µg/mL
same,MIC,S. aureus 144,> 64 µg/mL
same,MIC,S. aureus AD3,> 64 µg/mL
same,MIC,S. aureus ATCC 29213,> 64 µg/mL
same,melting point,,115 to 118 °C
"C=C[C@]1(C)C[C@@H](OC(=O)CSCCN(CC)CC)[C@]2(C)[C@H](C)CC[C@]3(CCC(=O)[C@H]32)[C@@H](C)[C@@H]1O [Tiamulin, tiamulin, reference compound]",MBC,MRSA ATCC 43300 [1],1 µg/mL
same,MIC,MRSA ATCC 43300 [1],0.5 µg/mL
same,MBC,S. aureus 144,2 µg/mL
same,MIC,S. aureus 144,1 µg/mL
same,MBC,S. aureus AD3,2 µg/mL
same,MIC,S. aureus AD3,1 µg/mL
same,MBC,S. aureus ATCC 29213,1 µg/mL
same,MIC,S. aureus ATCC 29213,1 µg/mL
same,MRSA killed in time–kill assay,"MRSA ATCC 43300 [2]; 2 × MIC, 24 h incubation",99.9%
same,reduction of MRSA in time–kill assay,"MRSA ATCC 43300 [2]; 2 × MIC, 24 h incubation",−3.78 log10 CFU/mL
same,type of bactericidal kinetics,MRSA ATCC 43300 [2],time-dependent
same,PAE,"MRSA ATCC 43300 [3]; 2 × MIC, exposure for 1 h",0.27 h
same,PAE,"MRSA ATCC 43300 [3]; 2 × MIC, exposure for 2 h",1.23 h
same,PAE,"MRSA ATCC 43300 [3]; 4 × MIC, exposure for 1 h",0.42 h
same,PAE,"MRSA ATCC 43300 [3]; 4 × MIC, exposure for 2 h",1.31 h
same,reduction of MRSA load in thigh vs growth control,MRSA ATCC 43300 [4],−0.56 log10 CFU/mL
